Melting point data for 24 compounds are collected here from patent US6348461B1, “6,7-asymmetrically disubstituted quinoxalinecarboxylic acid derivatives, addition salts thereof, and processes for the preparation of both” (Kyorin Pharmaceutical Co., Ltd., priority 1997, dated 2002).

Structures can show the parent of a compound that is named as a salt. Where only a bound is given, the exact number is not on record here.

Regarding `O=C(O)c1nc2cc(Oc3cccc([N+](=O)[O-])c3)c([N+](=O)[O-])cc2[nH]c1=O`, the melting point (in general, the temperature, or range, at which the solid turns liquid) is 198 to 200 °C (dec.). In the case of `O=C(O)c1nc2cc(CN3CCOCC3)c([N+](=O)[O-])cc2[nH]c1=O` (as salt: hydrochloride) [Example 160, 3,4-Dihydro-7-(morpholine-1-yl)methyl-6-nitro-3-oxoquinoxaline-2-carboxylic Acid Hydrochloride], the melting point is 209 to 211 °C (dec.). As for `O=C(NCc1cn(-c2cc3nc(C(=O)O)c(=O)[nH]c3cc2[N+](=O)[O-])cn1)Nc1ccc(C(=O)O)cc1` (as salt: salt) [Example 119, 7-(4-(((4-Carboxyphenyl)aminocarbonylamino)methyl)imidazolyl)-3,4-dihydro-6-nitro-3-oxoquinoxaline-2-carboxylic Acid], the melting point was 300 °C (dec.). Consider `O=C(NCc1cn(-c2cc3nc(C(=O)O)c(=O)[nH]c3cc2C(F)(F)F)cn1)Nc1ccc(C(=O)O)cc1` (as salt: salt) [Example 207, 7-(4-(((4-Carboxyphenyl)aminocarbonylamino)methyl)imidazole-1-yl)-3,4-dihydro-3-oxo-6-trifluoromethylquinoxaline-2-carboxylic Acid], for which the melting point was 255 °C (dec.). Consider `O=C(O)c1nc2cc(N3CCN(c4ccc(F)cc4)CC3)c([N+](=O)[O-])cc2[nH]c1=O` [Example 54, 3,4-Dihydro-7-(4-(4-fluorophenyl)piperazine-1-yl)-6-nitro-3-oxoquinoxaline-2-carboxylic Acid], for which the melting point lay in the range of 235.5 to 237.5 °C. In the case of `COc1ccccc1N1CCN(c2cc3nc(C(=O)O)c(=O)[nH]c3cc2[N+](=O)[O-])CC1` [Example 59, 3,4-Dihydro-7-(4-(2-methoxyphenyl)piperazine-1-yl)-6-nitro-3-oxoquinoxaline-2-carboxylic Acid], the melting point lay within 204 to 206 °C. The same measure for `O=C(O)c1nc2cc(N3CCN(Cc4ccccc4)CC3)c([N+](=O)[O-])cc2[nH]c1=O` [Example 60, 7-(4-Benzylpiperazine-1-yl)-3,4-dihydro-6-nitro-3-oxoquinoxaline-2-carboxylic Acid]: 278 to 280 °C. The same measure for `O=C(O)c1nc2cc(N3CCC(O)CC3)c([N+](=O)[O-])cc2[nH]c1=O` [Example 61, 3,4-Dihydro-7-(4-hydroxypiperidine-1-yl)-6-nitro-3-oxoqinoxaline-2-carboxylic Acid]: 253 to 255 °C; for `CN(C)Cc1cc2nc(C(=O)O)c(=O)[nH]c2cc1[N+](=O)[O-]` [Example 67, 3,4-Dihydro-7-dimethylaminomethyl-6-nitro-3-oxoquinoxaline-2-carboxylic Acid]: more than 300 °C; for `NC(=O)c1nc2cc(F)c([N+](=O)[O-])cc2[nH]c1=O` [Example 69, 3,4-Dihydro-7-fluoro-6-nitro-3-oxoquinoxaline-2-carboxamide]: more than 300 °C.

In the case of `NC(=O)c1nc2cc(-n3ccc(=O)cc3)c([N+](=O)[O-])cc2[nH]c1=O` [Example 70, 3,4-Dihydro-6-nitro-3-oxo-7-(4-pyridone-1-yl)quinoxaline-2-carboxamide], the melting point was more than 300 °C. The same measure for `Nc1cc2[nH]c(=O)c(C(=O)O)nc2cc1F` [Example 72, 6-Amino-3,4-dihydro-7-fluoro-3-oxoquinoxaline-2-carboxylic Acid]: more than 300 °C; for `O=C(NCc1ccn(-c2cc3nc(C(=O)O)c(=O)[nH]c3cc2C(F)(F)F)c1)Nc1ccc(C(=O)O)cc1` [Example 79, 7-(3-(((4-Carboxyphenyl)aminocarbonylamino)-methyl)pyrrole-1-yl)-3,4-dihydro-3-oxo-6-trifluoromethylquinoxaline-2-carboxylic Acid]: 234 to 236 °C (dec.); for `O=C(NCc1ccn(-c2cc3nc(C(=O)O)c(=O)[nH]c3cc2C(F)(F)F)c1)Nc1ccc(C(=O)O)cc1F` [Example 80, 7-(3-(((4-Carboxy-2-fluorophenyl)aminocarbonylamino)-methyl)pyrrole-1-yl)-3,4-dihydro-3-oxo-6-trifluoromethylquinoxaline-2-carboxylic Acid]: 249 to 251 °C (dec.). Turning to `O=C(Nc1ccc(Br)cc1)OCc1cn(-c2cc3nc(C(=O)O)c(=O)[nH]c3cc2[N+](=O)[O-])cn1` [Example 86, 7-(4-((N-(4-Bromophenyl)carbamoyloxy)methyl)imidazolyl)-3,4-dihydro-6-nitro-3-oxoquinoxaline-2-carboxylic Acid], the melting point is 270 to 272 °C (dec.).

For the compound `COc1ccc(NC(=O)OCc2cn(-c3cc4nc(C(=O)[O-])c(=O)[nH]c4cc3[N+](=O)[O-])cn2)cc1.[Na+]` [Example 108], the melting point was 265 to 267 °C (dec.). The same measure for `O=C(Nc1cccc(C(=O)O)c1)OCc1cn(-c2cc3nc(C(=O)O)c(=O)[nH]c3cc2[N+](=O)[O-])cn1` [Example 116, 7-(4-((N-(3-Carboxyphenyl)carbamoyloxy)methyl)imidazolyl)-3,4-dihydro-6-nitro-3-oxoquinoxaline-2-carboxylic Acid]: 272 to 274 °C (dec.); for `O=C(NCc1cn(-c2cc3nc(C(=O)O)c(=O)[nH]c3cc2[N+](=O)[O-])cn1)Nc1ccccc1F` [Example 118, 3,4-Dihydro-7-(4-(((2-fluorophenyl)aminocarbonylamino)methyl)imidazolyl)-6-nitro-3-oxoquinoxaline-2-carboxylic Acid]: 300 °C. For `O=C(Nc1cccc(C(=O)O)c1)OCc1cn(-c2cc3nc(C(=O)O)c(=O)[nH]c3cc2[N+](=O)[O-])ccc1=O` [Example 125, 7-(3-((N-(3-Carboxyphenyl)carbamoyloxy)methyl)-4-pyridone-1-yl)-3,4-dihydro-6-nitro-3-oxoquinoxaline-2-carboxylic Acid], the melting point was 250 to 252 °C (dec.). The same measure for `O=C(Nc1ccc(Br)cc1)Nc1cn(-c2cc3nc(C(=O)O)c(=O)[nH]c3cc2[N+](=O)[O-])ccc1=O` [Example 128, 7-(3-((4-Bromophenyl)aminocarbonylamino)-4-pyridone-1-yl)-3,4-dihydro-6-nitro-3-oxoquinoxaline-2-carboxylic Acid]: 252 to 254 °C (dec.); for `O=C(Nc1ccccc1)Nc1cn(-c2cc3nc(C(=O)O)c(=O)[nH]c3cc2[N+](=O)[O-])ccc1=O` [Example 129, 3,4-Dihydro-6-nitro-3-oxo-7-(3-(phenylaminocarbonylamino)-4-pyridone-1-yl)quinoxaline-2-carboxylic Acid]: 282 to 284 °C (dec.); for `O=C(Cc1ccc(Br)cc1)Nc1cn(-c2cc3nc(C(=O)O)c(=O)[nH]c3cc2[N+](=O)[O-])ccc1=O` [Example 136, 7-(3-((4-Bromobenzyl)carbonylamino)-4-pyridone-1-yl)-3,4-dihydro-6-nitro-3-oxoquinoxaline-2-carboxylic Acid]: 240 to 242 °C (dec.). As to `O=C(c1nc2cc(N3CCOCC3)c([N+](=O)[O-])cc2[nH]c1=O)N1CCOCC1` [Example 138, 3,4-Dihydro-7-morpholino-6-nitro-3-oxoquinoxaline-2-carboxylic Morpholineamide], the melting point lay within 298 to 299 °C. Turning to `Nc1cn(-c2cc3nc(C(=O)O)c(=O)[nH]c3cc2[N+](=O)[O-])ccc1=O` [Example 142, 7-(3-Amino-4-pyridone-1-yl)-3,4-dihydro-6-nitro-3-oxoquinoxaline-2-carboxylic Acid], the melting point was more than 300 °C.
